Laboratory results as given in patent publication US12544392B2, “Treatment of adenovirus infection or disease associated with adenovirus infection” (SymBio Pharmaceuticals Limited, priority 2023, dated 2026).
“Also recorded” adds a separate entry of the source.

Experiments:
[1] = Analysis of lymphocytes: absolute lymphocyte count of a patient in cohort 3; type: in vivo, human; details: patient 110-05 in cohort 3 (0.4 mg/kg IV twice weekly)
Excerpt: In the clinical study of Example 1, the absolute lymphocyte count in the plasma of the patient 110-05 in cohort 3 was examined.

[2] = Human clinical study of once-weekly IV BCV (Example 4): adverse events; type: in vivo; details: cohort 4: 0.4 mg/kg (20 mg/dose if body weight ≥50 kg) IV once weekly
Description: The study duration is at least 9 weeks, based on a screening period of 1 week, a treatment period of at least 4 weeks, and post-treatment follow-up period of 30 days. In the screening, after informed consent has been obtained from the patients, a screening evaluation is conducted to determine eligibility for the study. On the first day of the first week of the treatment period, patients are assigned a dose based on the applicable cohort (see the section 4.1.3 Cohorts 4-6 above). The duration of treatment is a minimum of 4 weeks and a maximum of 14 weeks, and termination is based on the treatment stopping criteria as described below. For patients who, at the physician's discretion, are assessed as being at high risk for AdV infection/recurrence of disease, the treatment period may be extended for up to 10 weeks, even after the 4-week treatment period is completed, if the AdV is not detected by the two most recent consecutive assays with an interval of 3 days at least. All patients are followed up for 30 days after the last dosing. Adverse events are evaluated according to the National Cancer Institute Common Terminology Criteria for Adverse Events (NCI CTCAE) version 5.0 (grade 1-5). In cohort 4, patients are enrolled in the initially planned dosing regimen of 0.4 mg/kg or 20 mg IV weekly. […]

[3] = Human clinical study: BCV-related adverse events (NCI CTCAE version 5.0); type: in vivo
Description: The study duration is at least 9 weeks, based on a screening period of 1 week, a treatment period of at least 4 weeks, and post-treatment follow-up period of 30 days. In the screening, after informed consent has been obtained from the patients, a screening evaluation is conducted to determine eligibility for the study. On the first day of the first week of the treatment period, patients are assigned a dose based on the applicable cohort (see the section 1.1.3 Cohorts 1-3 above). The duration of treatment is a minimum of 4 weeks and a maximum of 14 weeks, and termination is based on the treatment stopping criteria as described below. For patients who, at the physician's discretion, are assessed as being at high risk for AdV infection/recurrence of disease, the treatment period may be extended for up to 10 weeks, even after the 4-week treatment period is completed, if the AdV is not detected by the two most recent consecutive assays with an interval of 3 days at least. All patients are followed up for 30 days after the last dosing. Adverse events is evaluated according to the National Cancer Institute Common Terminology Criteria for Adverse Events (NCI CTCAE) version 5.0 (grade 1-5). Based on the results of the review of safety data from cohort 1, a decision is made whether to initiate cohort 2. Likewise, the decision to initiate cohort 3 is based on the results of the review of safety data from cohort 2. Enrollment in a new cohort is terminated immediately if grade 3 or higher adverse events are observed in more than 25% of all subjects in the previous cohort.

[4] = PK of BCV in plasma with or without concomitant cyclosporine; type: in vivo, human; details: for increase of AUCinf of BCV in plasma compared with BCV alone / increase of Cmax of BCV in plasma compared with BCV alone: healthy subjects
Excerpt: (§1) Subjects 101-12 of cohort 2, and 101-15, 101-18 and 110-06 of cohort 3 took cyclosporine, an immunosuppressive drug, during the treatment period (duration of treatment) of intravenous BCV. Prior PK studies in healthy subjects have shown a significant increase in plasma BCV exposure with concomitant intravenous infusion of BCV and cyclosporine. […] In view of the above, for the above patients taking cyclosporine, any of the doses indicated in 1.1.3 (cohorts 1-3) above is reduced to 60% for administration. Note that when cyclosporine is administered as BID (twice daily) oral or injectable form, the administration is conducted with an interval of 2 hours after the completion of intravenous BCV. In the case of continuous infusion of cyclosporine for 24 hours, no interval is needed.
as §1, with “Prior” for “Subjects 101-12 of cohort 2, and 101-15, 101-18 and 110-06 of cohort 3 took cyclosporine, an immunosuppressive drug, during the treatment period (duration of treatment) of intravenous BCV. Prior”, “4.1.3” for “1.1.3”, “4-6)” for “1-3)”

[5] = BCV IV and cyclosporine administered simultaneously
[6] = cyclosporine administered at 2 hours after the end of intravenous BCV infusion over 2 hours

CCCCCCCCCCCCCCCCOCCCOP(=O)(O)CO[C@H](CO)Cn1ccc(N)nc1=O [BCV, [(2S)-1-(4-amino-2-oxopyrimidin-1-yl)-3-hydroxypropan-2-yl]oxymethyl-(3-hexadecoxypropoxy)phosphinic acid]
number of lymphocytes (absolute lymphocyte count) [1]: tended to increase | occurrence of adverse events [2]: particularly suppressed | BCV-related adverse event, grade (relatedness) ([3]; cohort 1 (0.2 mg/kg IV twice weekly), patient 109-01, 0.2 mg/kg): elevated aspartate transaminase (AST)—grade 1 (probably); also recorded: elevated alanine transaminase (ALT)—grade 1 (probably); also recorded: elevated lactate dehydrogenase (LDH)—grade 1 (possibly) | BCV-related adverse event, grade (relatedness) ([3]; cohort 1 (0.2 mg/kg IV twice weekly), patient 110-01): diarrhea—grade 2 (possibly) | Grade 3 adverse events (number) ([3]; cohort 1: 0.2 mg/kg IV twice weekly): 0 | BCV-related adverse event, grade (relatedness) ([3]; cohort 2 (0.3 mg/kg IV twice weekly), patient 101-09): diarrhea—grade 3 (possibly) | BCV-related adverse event, grade (relatedness) ([3]; cohort 2 (0.3 mg/kg IV twice weekly), patient 101-14): hypertransaminasemia—grade 3 (possibly) | BCV-related adverse event, grade (relatedness) ([3]; cohort 2 (0.3 mg/kg IV twice weekly), patient 109-03): nausea—grade 1 (possibly) | Grade 3 adverse events (number) ([3]; cohort 2: 0.3 mg/kg IV twice weekly): 2 | BCV-related adverse event, grade (relatedness) ([3]; cohort 3 (0.4 mg/kg IV twice weekly), patient 102-02, 0.4 mg/kg): increased ALT—grade 3 (possibly); also recorded: increased AST—grade 3 (possibly) | BCV-related adverse event, grade (relatedness) ([3]; cohort 3 (0.4 mg/kg IV twice weekly), patient 109-04, 0.4 mg/kg): feeling of a racing heart—grade 1 (possibly); also recorded: nausea—grade 1 (possibly) | Grade 3 adverse events (number) ([3]; cohort 3: 0.4 mg/kg IV twice weekly): 1 | AUCinf and Cmax of BCV in plasma, cohort 3 patients versus healthy controls ([4]; BCV administered alone): substantially the same | increase of AUCinf of BCV in plasma compared with BCV alone [4, 5]: approximately 3.4 fold | increase of Cmax of BCV in plasma compared with BCV alone [4, 5]: ~2.3 fold | increase of AUCinf of BCV in plasma compared with BCV alone [4, 6]: approximately 1.8 fold | increase of Cmax of BCV in plasma compared with BCV alone [4, 6]: ~1.3 fold | effect of cyclosporine administration on the blood concentration of BCV ([4]; statement in the embodiments, no test described): does not affect
